Reference: the SangsterLogP compilation

Settings: not given
Molecule `COP(=S)(Oc1cc(Cl)c(Br)cc1Cl)c1ccccc1` (centres undefined) has a logP of 5.88. For `CCOP(=S)(OCC)Oc1ccc(SC)cc1`, the logP was 4.16. Work on `CCOP(=S)(OCC)Oc1ccc(S(C)(=O)=O)cc1` yielded a logP of 2.56. For `CCOP(=O)(OCC)Oc1cc(C)nc(C(C)C)n1`, the logP was 2.07. In the case of `CCOP(=O)(OCC)Oc1ccc([N+](=O)[O-])cc1`, the logP is reported as 1.98. For `CCOP(=S)(OCC)Oc1cc(C)nc(C(C)C)n1`, the logP was 3.81. Work on `CCOP(=S)(OCC)SCCS(=O)(=O)CC` yielded a logP of 1.87. Work on `CCOP(=S)(OCC)Oc1ccc(S(C)=O)cc1` (centres undefined) yielded a logP of 2.23. `COP(=O)(Oc1cc(Cl)c(Br)cc1Cl)c1ccccc1` (centres undefined) showed a logP of 4.58. `COP(=S)(OC)SCN1C(=O)c2ccccc2C1=O` gave a logP of 2.78. `CCOP(=S)(OCC)Oc1cc(C)nc(N(CC)CC)n1` showed a logP of 4.85. With `Cc1cc(Cl)ccc1/N=C/N(C)C` the logP was 2.89. For `CCOP(=S)(OCC)Oc1cc(Cl)c(Br)cc1Cl`, the logP was 5.68. With `COP(=S)(OC)Oc1cc(Cl)c(Br)cc1Cl` the logP was 4.88. `CCOP(=O)(OCC)SCS(=O)(=O)CC` showed a logP of 1.98. `COP(=S)(OC)SCSc1ccc(Cl)cc1` gave a logP of 4.82. With `COP(=O)(OC)SCn1nnc2ccccc2c1=O` the logP was 0.78. Work on `CCOP(=S)(OCC)Oc1ccc(N)cc1` yielded a logP of 2.6.

Same assay, conditions: pH 9.0
Work on `CNC(=O)Oc1ccc(N(C)C)c(C)c1` yielded a logD of 1.9.
